Reference: PMC7717705, “Topoisomerases inhibition and DNA binding mode of daunomycin–oligoarginine conjugate” (Journal of Enzyme Inhibition and Medicinal Chemistry, 2020)

Experiments:
h-TopoIIα = h-TopoIIα DNA relaxation assay (negatively supercoiled pBs plasmid, agarose gel); assay type: biochemical, human; conditions: drug 1.2 μM; h-TopoIIα 0.4 units; pBs 7.5 nM; drug-DNA pre-incubation 10 min at 4 °C, then 30 min at 30 °C; pH 7.9, 1 mM ATP; 1.2% agarose gel, ethidium bromide; three independent assays
Protocol: (§1) Human topoisomerase IIα (h-TopoIIα) was purchased from Affymetrix (product number 78303) and stored at −20 °C. Human Topoisomerase I (Sigma, St. Louis, MO). pBluescript (pBs) negatively supercoiled plasmid was directly extracted from an over-night E. coli cell culture by Invitrogen HiPure Plasmid Midi prep Kit according to the instruction of the manufacturers.
(§2) DNA relaxation assays were performed as previously described[24]^,[25] using the negative supercoiled pBluScript plasmid (pBS) purified from Escherichia coli as a substrate of DNA topoisomerases.
For h-TopoII-α assay the enzyme (0.4 units) was incubated for 30 min at 30 °C with negatively supercoiled pBS plasmid (7.5 nM), in a final volume of 20 µl of 1× reaction Buffer (10 mM Tris-HCl, pH 7.9, 50 mM NaCl, 50 mM KCl, 0.1 mM EDTA, 5 mM MgCl2, 15 µg/ml BSA, 1 mM ATP). […]
(§3) All reactions were stopped by the addition of SDS to a final concentration of 1% and the products were analysed by electrophoresis on a 1.2% agarose gel in presence of 0.5X Tris-Borate EDTA buffer. […] Finally the DNA bands were visualised using a BioRad Versadoc imaging system and quantified by Quantity One® software. The relative intensity of each band in the experiment was measured and used to calculate the amount of total DNA and the fraction of total products. For each condition the relaxation activity was expressed as a percentage of DNA products on total DNA[26].

h-TopoI = h-TopoI DNA relaxation assay (negatively supercoiled pBluescript plasmid, agarose gel); assay type: biochemical, human; conditions: drug 1.2 uM (not saturating); h-TopoI 100 nM; plasmid 7.5 nM; drug-DNA pre-incubation 10 min at 4 °C, then 60 min at 37 °C; pH 7.0; 1.2% agarose gel, ethidium bromide
Protocol: as §1, §2
For h-TopoI assay the enzyme (100 nM), was incubated for 60 min at 37 °C with negatively supercoiled pBluescript plasmid (7.5 nM) in a final volume of 20 µL of 1X reaction Buffer (10 mM Tris-HCl, pH 7.0, 100 mM NaCl, 0.1 mM NaEDTA, 10 mM MgCL2 and 50 µg/ml BSA). […]
as §3

Calf Thymus-DNA (ctDNA) = assay: DNA thermal melting monitored by circular dichroism; assay type: binding; conditions: 4 µM drug, ctDNA 0.2 mg/mL, Tris–HCl buffer, λ = 260 nm
Protocol: Melting studies were performed on a JascoJ-810 spectropolarimeter as described above by raising the temperature from 5 to 90 °C in 1 °C/min increments using a circulating water bath and monitoring the profiles at λ = 260 nm.
The DNA thermal melting was measured by monitoring the changes of HT[V] signal with temperature. Melting temperatures (Tm) were determined for each transition data by fitting sigmoidal curves using Boltzmann equations and obtaining good R-squared values (>0.95).

[1] = Fluorescence emission spectrum; assay type: physicochemical; conditions: drug 10 µM in 20 mM Tris buffer, pH 7.5; λ = 500–750 nm
Protocol: (§4) Fluorescence measurements of Dau and Dau-Arg6 were carried out with a JASCO spectrofluorimeter (FP8200) using Quartz cells of 1 cm. Spectra were recorded at drug concentration of 10 µM in a final volume of 1 ml of 20 mM Tris buffer (pH 7.5).

Calf Thymus DNA (ctDNA) = assay: Circular dichroism / induced circular dichroism (ICD) of ctDNA; assay type: binding
Protocol: Circular dichroism (CD) measurements were performed on a JascoJ-810 spectropolarimeter using a 0.1 cm path-length quartz cuvette at room temperature and the following parameters: three scans at a speed of 20 nm/min, 3 accumulations, 4 s time constant, 1 nm band width and 0.2 nm data pitch.
The spectral bandwidth was set up at 1 nm in the wavelength range of λ = 225–300 nm. The CD spectra of Calf Thymus DNA (ctDNA; 0.2 mg/mL) with or without drug (at selected concentrations) were measured under a nitrogen atmosphere using a 10 mM Tris-HCl buffer at pH 7.5. Results are presented as a mean of three scans and the buffer background was electronically subtracted from each measurement.
ICD measurements were recorded by keeping the concentration of ctDNA constant (0.2 mg/mL) and increasing drugs concentrations from 0 to 120 µM.

DNA plasmid (pBs) = assay: Fluorescence quenching titration with plasmid DNA; assay type: binding; conditions: drug 10 µM, pBs plasmid 5 to 40 nM, 20 mM Tris pH 7.5, 5 min equilibrium, room temperature
Protocol: as §4
For quenching experiment fluorescence titrations were conducted by keeping the concentration of drugs constant and varying the concentration of pBs plasmid from 5 to 40 nM. The spectroscopic measurements were recorded after 5 min to reach the equilibrium between the drugs and DNA. The spectra were recorded at room temperature in the wavelengths range of λ = 500–700 nm.

Structure (SMILES): COc1cccc2c1C(=O)c1c(O)c3c(c(O)c1C2=O)C[C@@](O)(C(C)=O)C[C@@H]3O[C@H]1C[C@H](N)[C@H](O)[C@H](C)O1 [Dau, daunomycin]
- inhibition of the total h-TopoIIα activity (DNA relaxation) (h-TopoIIα): 50%
- inhibition of the TopoI activity (DNA relaxation) (h-TopoI): 20%
- melting temperature (Tm) of ctDNA with drug (Calf Thymus-DNA (ctDNA); 5 to 90 °C at 1 °C/min, Boltzmann fit, ctDNA alone 81.3 °C): 90.3 °C
- increase in melting temperature of ctDNA (Calf Thymus-DNA (ctDNA); versus ctDNA without drugs (81 °C)): about 9 °C
- emission maximum λmax [1]: 596 nm
- DNA binding mode (Calf Thymus DNA (ctDNA); CD studies with ctDNA 0.2 mg/mL, 10 mM Tris-HCl pH 7.5): mainly by intercalation
- change of negative CD band of ctDNA at λ = 245 nm (Calf Thymus DNA (ctDNA); ctDNA 0.2 mg/mL, 10 mM Tris-HCl pH 7.5, room temperature, increasing drug concentration, mean of three scans): shifting to zero level
- fluorescence intensity on titration with DNA plasmid (DNA plasmid (pBs)): decreases with increasing concentration of DNA
